Results as given in article PMC6744417, “ALKBH overexpression in head and neck cancer: potential target for novel anticancer therapy” (Scientific Reports, 2019).
Where two headings read alike, the source gives them in different places.

Tests used:
HeLa cells [1] = tested on: HeLa cells; design: method as in ref 32 (Varela-Ramirez and co-workers 2011); settings: ref 32 (Varela-Ramirez and co-workers 2011); cited from earlier work
U87 cells [2] = assay: Alamar Blue viability assay, U87; type: cell-based, human; settings: 48 h of treatment
Experimental: (§1) Exponentially growing cells at the density of 3 × 10^3 cells/well were seeded onto a 96-well plate, cultured for 18 h followed by the respective treatment of antraquinones or its derivatives in various concentrations or 34 nM RNA interference of ALKBH proteins, and then cultured for a an additional 48 h. Alamar Blue (Invitrogen) viability assay was performed according to manufacturer’s protocol: after 4 h incubation, emission at 590 nm was measured with excitation at 560 nm using a scanning multiwall multimode spectrophotometer (DTX 880, Beckman Coulter). The experiment was carried out at least three times, with three replicates for each inhibitor concentration. After background subtraction, inhibition rates, IC50, values were calculated as the concentration of the component that inhibits cell growth by 50%. All the calculations were done using Origin 9.0 software.

FTO [3] = biological target: T1, FTO (Homo sapiens, UniProt Q9C0B1); assay: FTO N6meA demethylation Chemiluminescent Assay Kit; type: biochemical; settings: FTO 330 nM; N6meA on RNA; read-out: IC50 (Enzyme: FTO 330nM; Substrate: N6meA)
T1 construct: His; made in house; host or cells: E. coli BL-21
T1 sequence (Q9C0B1 whole entry): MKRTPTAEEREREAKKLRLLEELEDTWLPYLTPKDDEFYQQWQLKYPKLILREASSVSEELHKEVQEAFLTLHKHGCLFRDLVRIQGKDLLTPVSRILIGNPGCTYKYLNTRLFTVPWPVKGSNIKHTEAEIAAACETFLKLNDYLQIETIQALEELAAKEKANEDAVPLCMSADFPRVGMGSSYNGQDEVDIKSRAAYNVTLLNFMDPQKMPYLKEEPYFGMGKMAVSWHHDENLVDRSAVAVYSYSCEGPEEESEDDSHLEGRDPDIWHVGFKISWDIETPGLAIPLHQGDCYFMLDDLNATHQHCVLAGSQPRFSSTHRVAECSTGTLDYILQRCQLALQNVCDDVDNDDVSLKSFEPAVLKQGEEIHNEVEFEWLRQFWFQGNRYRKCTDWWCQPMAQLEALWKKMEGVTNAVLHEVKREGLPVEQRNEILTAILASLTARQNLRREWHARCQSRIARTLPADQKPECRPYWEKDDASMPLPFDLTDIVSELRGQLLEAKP
Experimental: To measure the activity of obtained by us FTO protein, Chemiluminescent Assay Kit was used (BPS Bioscience). As a substrate, we used N^6meA modification on RNA. The reactions were carried out according to the manufacturer’s protocol. Chemiluminescence was measured using the plate reader Synergy HT (Bio Tek) with 1 sec of integration time and 100 ms of delay after plate movement.

EcAlkB = biological target: T2, EcAlkB (Escherichia coli, UniProt P05050); assay: In vitro inhibition assay of demethylation activity (HPLC), AlkB; type: biochemical
T2 construct: made in house
T2 sequence (P05050 whole entry): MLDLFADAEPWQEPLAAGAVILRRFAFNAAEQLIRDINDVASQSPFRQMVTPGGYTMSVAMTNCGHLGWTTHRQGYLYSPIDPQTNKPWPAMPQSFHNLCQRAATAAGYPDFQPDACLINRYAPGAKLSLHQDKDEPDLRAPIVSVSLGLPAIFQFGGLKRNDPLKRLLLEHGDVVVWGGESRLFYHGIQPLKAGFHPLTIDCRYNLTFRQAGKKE
Experimental: (§2) For EcAlkB, ALKBH3, and FTO, the inhibitory effect was further quantified by measuring inhibition of demethylation activity in vitro (Fig. 6D). […]. The reactions were carried out for 30 min at 37 °C in 20 µl of 50 mM Tris-HCl pH 7.5 with 1 mM DTT, 100 µM Fe(NH4)2(SO4)2, 50 µM 2OG, and 100 nM of AlkB or ALKBH3, 25 µM of substrate, and different concentrations of indicated inhibitors. […]. Modified and unmodified (repaired) products were separated and analyzed on Knauer HPLC system with C18 column (Waters NovaPak). The mobile phase binding buffer (20 mM TEAA) and elution buffer (acetonitrile) were mixed and flown at a rate of 1 ml/min. The detection wavelength was 260 nm.

HeLa cells [4] = assay: Flow cytometry Annexin V-FITC / propidium iodide, HeLa; type: cell-based, human; settings: 48 h, untreated control 10.8%
Experimental: (§3) Silencing was performed using the lipofectamine RNAiMAX reagent (Invitrogen) and ready-to-use siRNA mixture (Santa Cruz Biotechnology) composed of at least two different siRNAs targeting the same gene, to knock down ALKBH1, 2, 3, 4, 5, 8, and FTO (Supplementary Table 2). 1 × 10^6 cells were seeded onto a 100 mm diameter dishes. After 24 h of incubation, siRNAs mixtures (with lipofectamine, in OPTI-MEM medium) were added. After 48 h, cells were collected for WB or flow cytometry analysis. For WB analysis, adherent cells were rinsed three times with PBS, scraped, and centrifuged (800 x g, 10 min, 4 °C). Next, cells were re-suspended in 100 μL RIPA buffer with a 1 x mammalian protease inhibitor cocktail (Sigma-Aldrich). The resulting lysates were spun down at 30 130 x g to remove insoluble particles, assayed for protein content using the Bradford assay, and loaded onto the SDS-PAGE at the protein amount of 20 μg per line. The strength of WB signals corresponding to the particular ALKBHs were calculated by densitometry. The expression changes by 30% were considered as significant.
(§4) The Annexin V-FITC apoptosis detection kit (ApoAlert Annexin V-FITC Apoptosis Kit, TaKaRa) was used to detect apoptosis by flow cytometry. Cells were seeded at 6-well plates at concentration of 5 × 10^5 cells/well, cultured for 18 h, and then the tested agent was applied for the indicated periods. Afterward, cells were washed with PBS, resuspended in binding buffer, and anti-Annexin V FITC-conjugated antibody and propidium iodide were added to 100 µl aliquots. The mixtures were incubated for 15 min at room temperature, supplemented with binding buffer to 500 µl, and processed using BD FACSCalibur (BD Biosciences). Data were analyzed in Flowing Software version 2.5.1 (Flowing Software, http://www.uskonaskel.fi/flowingsoftware).

HeLa cells [5] = assay: Alamar Blue viability assay, HeLa; type: cell-based, human; settings: 48 h of treatment
Experimental: (§5) Alamar Blue (Invitrogen) viability assay was performed according to manufacturer’s protocol: after 4 h incubation, emission at 590 nm was measured with excitation at 560 nm using a scanning multiwall multimode spectrophotometer (DTX 880, Beckman Coulter). The experiment was carried out at least three times, with three replicates for each inhibitor concentration. […] All the calculations were done using Origin 9.0 software.

EUFA30 cells [6] = assay: Alamar Blue viability assay, EUFA30; type: cell-based, human; settings: normal fibroblast cells, 48 h of treatment
Experimental: as §1

ALKBH3 [7] = biological target: T3, ALKBH3 (Homo sapiens, UniProt Q96Q83); assay: In vitro inhibition assay of demethylation activity (HPLC), ALKBH3; type: biochemical
T3 construct: made in house
T3 sequence (Q96Q83 1-286): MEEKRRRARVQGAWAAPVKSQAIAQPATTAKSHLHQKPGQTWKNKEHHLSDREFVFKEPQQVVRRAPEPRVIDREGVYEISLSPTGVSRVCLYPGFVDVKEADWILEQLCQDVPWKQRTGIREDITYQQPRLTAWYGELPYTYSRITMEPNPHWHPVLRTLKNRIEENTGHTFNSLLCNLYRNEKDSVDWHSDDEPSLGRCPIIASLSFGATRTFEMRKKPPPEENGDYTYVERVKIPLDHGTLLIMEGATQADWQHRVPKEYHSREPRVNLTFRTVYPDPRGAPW
Experimental: as §2

ALKBH3 [8] = biological target: T3, ALKBH3; assay: Thermal shift assay for ligand binding, ALKBH3 holo form; settings: ALKBH3 holo form (2OG, Mn2+), 5 µM compound; result in words
Experimental: (§6) We tested the affinity of our newly synthesized anthraquinones, 7-chloroemodin and 5,7-dichloroemodin, (Fig. S13) for ALKBH3 and FTO and assessed their effect on the enzymatic activity of targeted proteins using the thermal shift assay (TSA). The thermodynamic parameters for thermal denaturation of both proteins were measured for their holo forms, in the presence of 2OG and Mn^2+, an analogue of Fe^2+.
(§7) The assay was developed previously to monitor ligand binding to AlkB[36]. Fluorescence experiments were performed using a Varian Cary Eclipse spectrofluorimeter. Emission was monitored at 345 nm (excitation at 280 nm) over a temperature range of 40-95 °C with heating rate of 1 °C/min. The protein samples were dissolved in HEPES buffer at pH 7.5 with 2 mM dithiotreitol (DTT) and 150 mM NaCl to a final concentration of 1.2 µM. The process of thermal unfolding was performed at a concentration of 5 µM of the tested compound, either in the presence or absence of cofactors (50 µM 2OG and 100 µM Mn(II)). The thermal unfolding of the holo form of the protein was always monitored and further used as the reference. All the calculations were performed using Origin 9.0 software, assuming the simplest model of two-state (Folded-Unfolded) transition.

HEK293 cells = assay: Alamar Blue viability assay, HEK293; type: cell-based, human; settings: 48 h of treatment
Experimental: as §5

FTO [9] = biological target: T1, FTO; assay: Thermal shift assay for ligand binding, FTO holo form; settings: FTO holo form (2OG, Mn2+), 5 µM compound; holo form alone 52.8 ± 0.6 °C
Experimental: as §6, §7

BICR18 cells = assay: Alamar Blue viability assay, BICR18; type: cell-based, human; settings: 48 h of treatment
Experimental: as §5

ALKBH3 [10] = tested on: ALKBH3; design: method as in ref 14 (Li and co-workers 2016); settings: ref 14 (Li and co-workers 2016); read-out: IC50 against ALKBH3; cited from earlier work
U87 cells [11] = tested on: U87 cells; design: method as in ref 14 (Li and co-workers 2016); settings: ref 14 (Li and co-workers 2016); cited from earlier work
EUFA30 cells [12] = assay: Flow cytometry Annexin V-FITC / propidium iodide, EUFA30; type: cell-based, human; settings: EUFA30, 500 μM, 48 h
Experimental: as §3, §4

[13] = EcAlkB 100 nM, 3meC on TT(3meC)TT pentamer, 30 min 37 °C, read-out: IC50 (Enzyme: EcAlkB 100nM; Substrate: 3meC)
[14] = ALKBH3 100 nM, 3meC on TT(3meC)TT pentamer, 30 min 37 °C, read-out: IC50 (Enzyme: ALKBH3 100nM; Substrate: 3meC)

Compound | IC50 (FTO [3]) | IC50 (EcAlkB; [13]) | IC50 (ALKBH3 [7]; [14]) | binding to ALKBH3 judged by increase of melting temperature (ALKBH3 [8]) | IC50 (U87 cells [2]; Homo sapiens, U-87 MG) | IC50 (EcAlkB) | IC50 (HeLa cells [5]; Homo sapiens, HeLa) | IC50 (EUFA30 cells [6]; Homo sapiens) | IC50 (HEK293 cells; Homo sapiens, HEK293) | IC50 (BICR18 cells; Homo sapiens) | other results
[CH3][Sn]([Cl])([c]1ccccc1)[c]1ccccc1 [DPMT, diphenylmethyltin chloride] | – | – | – | – | – | – | – | – | – | – | necrosis on HeLa cells (HeLa cells [1]): more than 40 % of cells
Cc1c(Cl)c(O)c2c(c1Cl)C(=O)c1cc(O)cc(O)c1C2=O [5,7-Dichloroemodin] | 42.1 ± 6.5 µM | 16.4 µM | 176000 ± 6000 nM | slightly more weakly | – | – | – | – | – | – | IC50 (U87 cells [2]): 158 µM; number of necrotic HeLa cells (HeLa cells [4]; 25 μM): 69.2%; number of necrotic HeLa cells (HeLa cells [4]; 100 μM): 83.1%; IC50 (HeLa cells [5]): 10.6 µM; IC50 (EUFA30 cells [6]): 102 µM; IC50 (HEK293 cells): 87.3 µM; melting temperature of FTO-ligand complex (FTO [9]): 67.4 ± 0.1 °C; IC50 (BICR18 cells): 39.8 µM
Cc1cc2c(c(O)c1Cl)C(=O)c1c(O)cc(O)cc1C2=O [7-Chloroemodin] | 28.1 µM | 19.8 µM | 116000 ± 7000 nM | – | – | – | – | – | – | – | IC50 (U87 cells [2]): 120 µM; number of necrotic HeLa cells (HeLa cells [4]; 25 μM): 18.8%; number of necrotic HeLa cells (HeLa cells [4]; 100 μM): 37.6%; IC50 (HeLa cells [5]): 33.8 µM; IC50 (EUFA30 cells [6]): 163 µM; IC50 (HEK293 cells): 180 µM; melting temperature of FTO-ligand complex (FTO [9]): 71.5 ± 0.2 °C; IC50 (BICR18 cells): 99.5 µM
O=C1c2cccc(O)c2C(=O)c2c(O)cc(CO)cc21 [Aloe-Emodin] | 52 ± 12.6 µM | – | 8800 nM | slightly more weakly | > 1000 µM | 230 ± 100 µM | 26 µM | 380 µM | > 1000 µM | 57.5 µM | cytotoxicity against U87 (U87 cells [2]): not cytotoxic; cytotoxicity against HEK293 (HEK293 cells): not cytotoxic
Cc1cc(O)c2c(c1)C(=O)c1cc(O)cc(O)c1C2=O [Emodin] | 49.4 ± 19 µM | – | 540000 ± 160000 nM | slightly more weakly | 42.7 µM | 520 ± 100 µM | 110 µM | 138 µM | – | 81.1 µM | –
Cc1c(C(=O)O)c(O)cc2c1C(=O)c1c(O)c([C@@H]3O[C@H](CO)[C@@H](O)[C@H](O)[C@H]3O)c(O)c(O)c1C2=O [Carminic Acid, Carminic acid] | 25.3 ± 2.2 µM | 170 ± 70 µM | 111000 ± 7000 nM | – | 258 µM | – | 387 µM | 311 µM | 219 µM | 305 µM | –
O=C(O)c1cc(O)c2c(c1)C(=O)c1cccc(O)c1C2=O [Rhein] | – | – | – | strongest ligand | > 1000 µM | 20.5 µM | 126 µM | 423 µM | 157 µM | 89.4 µM | IC50 (ALKBH3 [10]): 5.3 µM; IC50 (ALKBH3 [7]; as printed in text in nM, 3meC substrate, read-out: IC50 against ALKBH3): 40 nM; cytotoxic effect against U87 cells (U87 cells [11]): did not found any cytotoxic effect; increase of early apoptosis stage compared to untreated control (EUFA30 cells [12]): approximately 2 fold; increase of late apoptosis compared to untreated control (EUFA30 cells [12]): 15 fold; increase of necrosis compared to untreated control (EUFA30 cells [12]): 11 fold
